Like-named read-outs stand apart in the source and are kept apart here. Ends that are not written are not given here.
Tests used:
GABARAPL1 = target: T1, GABARAPL1 (Homo sapiens, UniProt Q9H0R8); assay: BLI, LIR peptide binding to GABARAPL1
T1 construct: insertion of full-length human GABARAP, GABARAP-L1, LC3A, and LC3C, and EcoRI and NotI restrictions sites for cloning of LC3B and GABARAP-L2; GST (followed by 3C protease site) (N); made in house; host or cells: bacteria (E. coli BL21 (DE3) pLysS is stated for the GST-ATG8 proteins of the overlay assay)
T1 sequence (Q9H0R8 whole entry): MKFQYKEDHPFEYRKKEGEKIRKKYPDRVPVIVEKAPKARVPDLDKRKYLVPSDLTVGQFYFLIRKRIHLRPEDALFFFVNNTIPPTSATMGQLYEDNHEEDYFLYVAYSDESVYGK
Method: (§1) For recombinant protein expression in bacteria, a modified plasmid of pGEX-6P2 (GE Healthcare) (referred to as pAL) containing an N-terminal […] followed by a 3C protease cleavage site was used.
(§2) Expression was induced by the addition of 0.5 mM IPTG at OD600 = 0.6 and cells were incubated at 25 °C overnight or at 37 °C for 5 h. Harvested cells were lysed in 50 mM Tris-HCl, pH 8.0, 500 mM NaCl, 0.1% Triton X-100, 0.4 mM 4-(2-aminoethyl)-benzenesulfonylfluoride HCl (AEBSF), and 15 µg/ml benzamidine. Fusion protein was batch adsorbed onto Glutathione-Sepharose 4B beads (GE Healthcare). After five washes with wash buffer (50 mM Tris, pH 8.0, 250 mM NaCl, 0.4 mM AEBSF, and 15 µg/ml benzamidine), fusion proteins were eluted in 50 mM Tris, pH 8.0, 2 mM L-glutathione reduced, 0.4 mM AEBSF, and 15 µg/ml benzamidine.
(§3) The biosensor tip surface immobilized with a ligand is incubated with an analyte in solution, resulting in an increase in optical thickness at the biosensor tip and a wavelength shift, which is a direct measure of the change in thickness. […] Ligand-loaded SA biosensors were then incubated with different concentrations of ATG8. All binding experiments were performed in solid-black 96-well plates containing 200 μl of solution (25 mM Tris, pH 7.5, 150 mM NaCl, 0.5 mM TCEP, 0.1% Tween-20, 1 mg/ml bovine serum albumin (BSA)) in each well at 25 °C with an agitation speed of 1000 rpm. Each measurement was repeated two to five times.
(§4) Peptides were synthesized using FMOC (fluorenylmethoxycarbonyl) solid-phase peptide chemistry by the Francis Crick Peptide Chemistry Technology Platform and are listed in Supplementary Table 2.

GABARAPL2 = target: T2, GABARAPL2 (Homo sapiens, UniProt P60520); assay: BLI, LIR peptide binding to GABARAPL2; conditions: read-out: Kd (best-fit value)
T2 construct: insertion of full-length human GABARAP, GABARAP-L1, LC3A, and LC3C, and EcoRI and NotI restrictions sites for cloning of LC3B and GABARAP-L2; GST (followed by 3C protease site) (N); made in house; host or cells: bacteria (E. coli BL21 (DE3) pLysS is stated for the GST-ATG8 proteins of the overlay assay)
T2 sequence (P60520 whole entry): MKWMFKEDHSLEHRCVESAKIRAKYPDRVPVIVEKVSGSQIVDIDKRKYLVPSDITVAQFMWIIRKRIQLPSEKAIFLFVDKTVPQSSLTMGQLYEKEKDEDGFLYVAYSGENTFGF
Method: as §1, §2, §3, §4

LC3C = target: T3, LC3C (Homo sapiens, UniProt Q9BXW4); assay: BLI, LIR peptide binding to LC3C; conditions: read-out: Kd (best-fit value)
T3 construct: insertion of full-length human GABARAP, GABARAP-L1, LC3A, and LC3C, and EcoRI and NotI restrictions sites for cloning of LC3B and GABARAP-L2; GST (followed by 3C protease site) (N); made in house; host or cells: bacteria (E. coli BL21 (DE3) pLysS is stated for the GST-ATG8 proteins of the overlay assay)
T3 sequence (Q9BXW4 whole entry): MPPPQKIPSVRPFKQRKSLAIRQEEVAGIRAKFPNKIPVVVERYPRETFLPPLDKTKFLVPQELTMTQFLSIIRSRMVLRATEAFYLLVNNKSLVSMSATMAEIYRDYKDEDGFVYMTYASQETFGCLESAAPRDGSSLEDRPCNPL
Method: as §1, §2, §3, §4

GABARAP = target: T4, GABARAP (Homo sapiens, UniProt O95166); assay: BLI, LIR peptide binding to GABARAP; conditions: n=2 independent experiments, read-out: Kd (best-fit value)
T4 construct: insertion of full-length human GABARAP, GABARAP-L1, LC3A, and LC3C, and EcoRI and NotI restrictions sites for cloning of LC3B and GABARAP-L2; GST (followed by 3C protease site) (N); made in house; host or cells: bacteria (E. coli BL21 (DE3) pLysS is stated for the GST-ATG8 proteins of the overlay assay)
T4 sequence (O95166 whole entry): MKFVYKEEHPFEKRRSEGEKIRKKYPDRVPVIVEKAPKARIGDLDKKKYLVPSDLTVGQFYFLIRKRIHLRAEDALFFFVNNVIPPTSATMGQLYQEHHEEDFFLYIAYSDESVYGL
Method: as §1, §2, §3, §4

LC3A = target: T5, LC3A (Homo sapiens, UniProt Q9H492); assay: Bio-layer interferometry (BLI), LIR peptide binding to LC3A; conditions: read-out: Kd (best-fit value)
T5 construct: insertion of full-length human GABARAP, GABARAP-L1, LC3A, and LC3C, and EcoRI and NotI restrictions sites for cloning of LC3B and GABARAP-L2; GST (followed by 3C protease site) (N); made in house; host or cells: bacteria (E. coli BL21 (DE3) pLysS is stated for the GST-ATG8 proteins of the overlay assay)
Method: as §1, §2, §3, §4

LC3B = target: T6, LC3B (Homo sapiens, UniProt Q9GZQ8); assay: BLI, LIR peptide binding to LC3B; conditions: read-out: Kd (best-fit value)
T6 construct: insertion of full-length human GABARAP, GABARAP-L1, LC3A, and LC3C, and EcoRI and NotI restrictions sites for cloning of LC3B and GABARAP-L2; GST (followed by 3C protease site) (N); made in house; host or cells: bacteria (E. coli BL21 (DE3) pLysS is stated for the GST-ATG8 proteins of the overlay assay)
Method: as §1, §2
The biosensor tip surface immobilized with a ligand is incubated with an analyte in solution, resulting in an increase in optical thickness at the biosensor tip and a wavelength shift, which is a direct measure of the change in thickness. […] Ligand-loaded SA biosensors were then incubated with different concentrations of ATG8. […]

[1] = fit of response vs GABARAPL1 concentration (μM), n=2 independent experiments, read-out: Kd (best-fit value)
[2] = fit of response vs GABARAP concentration (μM)
[3] = Fig. 4c, fit of response vs GABARAP concentration
[4] = Fig. 4c, fit of response vs GABARAPL1 concentration, n=2 independent experiments, read-out: Kd (best-fit value)

Row | Compound | Kd (GABARAPL1; [1]) | Kd (GABARAPL2) | Kd (LC3C) | Kd (GABARAP; [2]) | Kd (LC3A) | Kd (LC3B) | Kd (GABARAP; [3]) | Kd (GABARAPL1; [4]) | Kd (GABARAPL1; immobilised biotinylated LIR peptide, pH 7.5, 25 °C, mean ± s.d., n = 2–4, pictures print no unit, µM as, read-out: Kd, LIR peptide to GABARAPL1)
1 | CSCC[C@H](NC(=O)[C@@H](NC(=O)[C@H](Cc1ccccc1)NC(=O)[C@H](CC(=O)O)NC(=O)[C@H](CC(=O)O)NC(=O)[C@@H](NC(=O)[C@@H](N)CC(=O)O)[C@@H](C)O)C(C)C)C(=O)N[C@H](C(=O)N1CCC[C@H]1C(=O)N[C@@H](C)C(=O)N[C@@H](CCC(N)=O)C(=O)N[C@@H](Cc1ccccc1)C(=O)N1CCC[C@H]1C(=O)NCC(=O)N[C@@H](CC(=O)O)C(=O)N[C@@H](CC(C)C)C(=O)N[C@H](C(=O)O)C(C)C)C(C)C [ULK1 (aa 353-369)] | 0.102 µM | 583 nM |  |  |  |  |  |  | 
2 | DDFVMVPAQFPGDLV [ULK1 (aa 355-369)] | 0.243 µM | 2210 nM | 7840 nM | 0.288 µM |  |  |  |  | 
3 | DSSCDTDDFVMV [ULK1 (aa 349-360)] | 0.22 µM | 1090 nM | 2210 nM | 0.218 µM | 2920 nM | 8470 nM |  |  | 
4 | DSSCDTDDFVMVPA [ULK1 (aa 349-362)] | 0.148 µM | 712 nM | 2780 nM | 0.174 µM | 9230 nM |  |  |  | 
5 | DSSCDTDDFVMVPAQF [ULK1 (aa 349-364)] | 0.161 µM | 534 nM | 2230 nM |  | 8370 nM |  |  |  | 
6 | SQKSDEEDFDIIEDLPLKLTI [PCM1 V1956D/ K1957I/ V1958I] |  |  | 2350 nM |  | 4610 nM |  | 1.39 µM | 0.907 µM | 
7 | SQKSDEEDFDKVEDLPLKLTI [PCM1 V1956D] |  |  |  |  |  |  | 7.72 µM | 5.19 µM | 
8 | SQKSDEEDFVIVEDLPLKLTI [PCM1 K1967I] |  |  | 384 nM |  | 3930 nM |  |  | 0.131 µM | 
9 | SQKSDEEDFVKIEDLPLKLTI [PCM1 V1959I] |  | 7580 nM | 6940 nM |  |  |  | 1.46 µM | 1.07 µM | 
10 | SQKSDEEDFVKIEDLPLKLTI [Γ3] |  |  |  |  |  |  |  |  | 1.1 ± 0.1 µM
11 | SQKSDEEDFVKVEDLALKLTI [PCM1 P1962A] |  | 10500 nM | 10800 nM |  |  |  | 0.994 µM | 0.879 µM | 
12 | SQKSDEEDFVKVTDLPLKLTI [PCM1 E1959T] |  |  |  |  |  |  |  | 2.89 µM | 
13 | YRPPDDAVFDIITDEELCQIQ [FYCO1 WT] |  |  | 3040 nM |  | 778 nM | 1130 nM | 1.73 µM | 0.9 µM | 
